Measured values reported in patent publication US20260365670A1, “EGFR INHIBITORS AND USES THEREOF” (DIZAL (JIANGSU) PHARMACEUTICAL CO., LTD., priority 2022, published 2026).
Like-named read-outs stand apart in the source and are kept apart here.

Columns and labels:
[1] = molecular target: T1, EGFR[T790M/C797S/L858R] (Homo sapiens, UniProt P00533, C797S/L858R/T790M); assay: Inhibition of EGFR[T790M/C797S/L858R] biochemical enzymatic activity (HTRF); conditions: 1 mM ATP
T1 construct: purchased Carna Bio
Description: (§1) Biological Example 1: Inhibition of EGFR WT and Mutant Biochemical Enzymatic Activity
(§2) The inhibition potency of compounds against these enzymes was assessed using Homogenous Time Resolved Fluorescence approach (HTRF, CisBio. Cat No. 62TKOPEJ).
(§3) Inhibitory effects of the compounds were determined by measuring the enzymatic activity of EGFR enzyme phosphorylates 1 μM TK Substrate-biotin in the presence of 1 mM adenosine-5′-triphosphate (ATP) and varying concentrations of the test compound. The enzyme reaction buffer contains 5 mM MgCl2, 1 mM MnC12, 0.01% CHAPS, 1 mM dithiothreitol (DTT), 0.5% dimethylsulfoxide (DMSO), and 1× supplemented enzymatic buffer. The WT and mutant EGFR enzymes (SignalChem) were added to plates containing inhibitors, followed by activation of the kinase reaction by addition of ATP and peptide substrates. After incubation for 1 h at room temperature, the reaction was stopped by the addition of the detection reagent mix containing EDTA. The fluorescence was measured at 615 nm and 665 nm, respectively with excitation wavelength at 320 nm. The calculated signal ratio of 665 nm/615 nm is proportional to the kinase activity. The concentration of compound producing 50% inhibition of the respective kinase (IC50) was calculated using four-parameter logistic fit with XL-FIT.

[2] = molecular target: T2, EGFR L858R (Homo sapiens, UniProt P00533, L858R); assay: Inhibition of EGFR L858R biochemical enzymatic activity (HTRF); conditions: 1 mM ATP
T2 construct: purchased Carna Bio
Description: as §1, §2, §3

[3] = molecular target: T3, EGFR (C797S L858R) (Homo sapiens, UniProt P00533, C797S/L858R); assay: Inhibition of EGFR (C797S L858R) biochemical enzymatic activity (HTRF); conditions: 1 mM ATP
T3 construct: purchased signalchem
Description: as §1, §2, §3

[4] = molecular target: T4, EGFR Exon19Del/T790M (Homo sapiens, UniProt P00533, DEL746-750/T790M); assay: Inhibition of EGFR Exon19Del/T790M biochemical enzymatic activity (HTRF); conditions: 1 mM ATP
T4 construct: purchased Carna Bio
Description: as §1, §2, §3

[5] = molecular target: T5, EGFR (d746-750 C797S) (Homo sapiens, UniProt P00533, C797S/DEL746-750); assay: Inhibition of EGFR (d746-750 C797S) biochemical enzymatic activity (HTRF); conditions: 1 mM ATP
T5 construct: purchased signalchem
Description: as §1, §2, §3

[6] = molecular target: T6, EGFR L858R/T790M (Homo sapiens, UniProt P00533, L858R/T790M); assay: Inhibition of EGFR L858R/T790M biochemical enzymatic activity (HTRF); conditions: 1 mM ATP
T6 construct: purchased Carna Bio
Description: as §1, §2, §3

[7] = molecular target: T7, EGFR[T790M/C797S/d746-750] (Homo sapiens, UniProt P00533, C797S/DEL746-750/T790M); assay: Inhibition of EGFR[T790M/C797S/d746-750] biochemical enzymatic activity (HTRF)
T7 construct: purchased Carna Bio
Description: as §1, §2, §3

[8] = molecular target: T8, EGFR Exon19Del (Homo sapiens, UniProt P00533, DEL746-750); assay: Inhibition of EGFR Exon19Del biochemical enzymatic activity (HTRF); conditions: read-out: IC50 @Del19
T8 construct: purchased Carna Bio
Description: as §1, §2, §3

[9] = molecular target: T9, EGFR wild type (Homo sapiens, UniProt P00533); assay: Inhibition of EGFR wild type biochemical enzymatic activity (HTRF); conditions: 1 mM ATP
T9 construct: purchased Carna Bio
Description: as §1, §2, §3

[10] = system: PC-9; assay: Cell proliferation assay, PC-9 cells (CellTiter-Glo, 72 hours); assay type: cell-based; conditions: Homo sapiens, PC-9, 72 h, PC9 cells, read-out: GI50 PC9
Description: (§4) Biological Example 2: Cell Proliferation Assays
(§5) Ba/F3 cells expressing EGFR mutations were seeded in 384-well plates at 5000 cells/well in RPMI1640 medium containing […]. PC-9 at 500 cells/well was seeded into 384-well plates in RPMI1640 medium with 10% FBS. After overnight incubation, the assay plates were dosed with compounds at a series of concentrations. Alongside dosing the assay plates, the day 0 plate was processed using CellTiter-Glo® Luminescent Cell Viability Assay (Promega) to measure the number of viable cells (G0). The assay plates were further incubated for 72 hours and the number of viable cells (G3) was measured. The percentage of proliferation was calculated as: […]=100×(G3 value of sample well−G0 value)/(G3 value of DMSO control−G0 value). The concentration of compound producing 50% proliferation inhibition (GI50) was further calculated in best-fit curves using XLFit software. N/A=not available.

[11] = system: Ba/F3 cells expressing EGFR mutations; assay: Cell proliferation assay, Ba/F3 cells expressing EGFR mutations (CellTiter-Glo, 72 hours); assay type: cell-based
Description: as §4, §5

[12] = EGFR[T790M/C797S/L858R], 1 h at room temperature, read-out: IC50 @T790M- C797S - L858R
[13] = EGFR (C797S L858R), 1 h at room temperature, read-out: IC50 @L858-C797S
[14] = EGFR Exon19Del/T790M, 1 h at room temperature, read-out: IC50 @Del19-T790M
[15] = EGFR (d746-750 C797S), 1 h at room temperature, read-out: IC50 @Del19-C797S
[16] = EGFR L858R/T790M, 1 h at room temperature, read-out: IC50 @L858R-T790M
[17] = BaF3 cells, EGFR L858R - T790-C797S, read-out: GI50 L858R - T790-C797S/BaF3
[18] = BaF3 cells, EGFR L858R - T790M, read-out: GI50 L858R - T790M/BaF3
[19] = EGFR DEL19 - T790M, read-out: GI50 DEL19 - T790M
[20] = EGFR[T790M/C797S/d746-750], 1 mM ATP, 1 h at room temperature, read-out: IC50 @T790M - C797S - Del19
[21] = EGFR Exon19Del, 1 mM ATP, 1 h at room temperature
[22] = EGFR wild type, 1 h at room temperature, read-out: IC50 @WT

T9 sequence (P00533 25-1210): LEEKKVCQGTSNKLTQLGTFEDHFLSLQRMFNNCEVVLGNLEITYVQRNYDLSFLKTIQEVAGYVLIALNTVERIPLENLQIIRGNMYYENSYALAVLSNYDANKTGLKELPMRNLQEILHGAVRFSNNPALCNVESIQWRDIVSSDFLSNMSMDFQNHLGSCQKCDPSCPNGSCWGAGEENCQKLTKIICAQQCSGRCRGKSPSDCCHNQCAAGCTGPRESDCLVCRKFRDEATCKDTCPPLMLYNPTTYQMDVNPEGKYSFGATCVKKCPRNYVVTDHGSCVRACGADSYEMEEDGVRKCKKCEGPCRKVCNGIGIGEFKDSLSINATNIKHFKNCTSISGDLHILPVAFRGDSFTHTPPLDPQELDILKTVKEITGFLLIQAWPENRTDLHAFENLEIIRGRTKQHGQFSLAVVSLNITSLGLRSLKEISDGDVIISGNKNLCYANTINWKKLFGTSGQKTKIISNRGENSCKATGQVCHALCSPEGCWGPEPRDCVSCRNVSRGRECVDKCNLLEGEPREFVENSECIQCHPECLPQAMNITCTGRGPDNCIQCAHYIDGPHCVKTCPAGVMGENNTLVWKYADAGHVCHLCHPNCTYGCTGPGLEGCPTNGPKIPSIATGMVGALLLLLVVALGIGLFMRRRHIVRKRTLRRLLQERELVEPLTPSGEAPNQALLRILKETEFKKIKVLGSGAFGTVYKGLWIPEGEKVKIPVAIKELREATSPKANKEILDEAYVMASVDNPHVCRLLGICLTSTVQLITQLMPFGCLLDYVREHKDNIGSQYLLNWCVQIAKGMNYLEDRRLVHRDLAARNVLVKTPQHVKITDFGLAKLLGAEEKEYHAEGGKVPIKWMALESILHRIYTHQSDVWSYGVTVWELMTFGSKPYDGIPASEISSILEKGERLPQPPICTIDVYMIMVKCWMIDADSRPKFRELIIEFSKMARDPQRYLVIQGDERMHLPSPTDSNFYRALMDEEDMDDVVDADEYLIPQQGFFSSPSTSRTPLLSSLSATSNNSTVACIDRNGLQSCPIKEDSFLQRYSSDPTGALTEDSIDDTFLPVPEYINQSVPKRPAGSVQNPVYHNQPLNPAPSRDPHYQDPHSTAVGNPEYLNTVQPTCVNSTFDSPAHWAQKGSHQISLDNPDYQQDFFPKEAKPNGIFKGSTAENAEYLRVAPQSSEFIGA
T8 sequence (P00533 with tags, fused parts or gaps DEL746-750 limits assumed): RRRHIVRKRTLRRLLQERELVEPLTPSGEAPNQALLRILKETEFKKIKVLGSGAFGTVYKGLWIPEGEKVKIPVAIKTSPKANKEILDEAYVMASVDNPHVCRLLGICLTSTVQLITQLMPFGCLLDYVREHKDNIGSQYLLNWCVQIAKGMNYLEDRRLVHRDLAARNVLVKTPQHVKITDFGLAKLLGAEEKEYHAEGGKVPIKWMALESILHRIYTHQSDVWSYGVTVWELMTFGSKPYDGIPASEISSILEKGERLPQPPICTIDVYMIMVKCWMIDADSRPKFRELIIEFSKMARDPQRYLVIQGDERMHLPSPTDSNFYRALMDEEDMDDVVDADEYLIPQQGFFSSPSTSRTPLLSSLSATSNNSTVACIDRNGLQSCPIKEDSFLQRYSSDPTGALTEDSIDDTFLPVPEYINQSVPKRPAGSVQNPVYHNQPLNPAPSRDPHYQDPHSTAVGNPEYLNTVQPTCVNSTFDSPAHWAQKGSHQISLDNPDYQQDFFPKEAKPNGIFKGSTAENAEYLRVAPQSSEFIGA
T1 sequence (P00533 25-1210 T790M/C797S/L858R): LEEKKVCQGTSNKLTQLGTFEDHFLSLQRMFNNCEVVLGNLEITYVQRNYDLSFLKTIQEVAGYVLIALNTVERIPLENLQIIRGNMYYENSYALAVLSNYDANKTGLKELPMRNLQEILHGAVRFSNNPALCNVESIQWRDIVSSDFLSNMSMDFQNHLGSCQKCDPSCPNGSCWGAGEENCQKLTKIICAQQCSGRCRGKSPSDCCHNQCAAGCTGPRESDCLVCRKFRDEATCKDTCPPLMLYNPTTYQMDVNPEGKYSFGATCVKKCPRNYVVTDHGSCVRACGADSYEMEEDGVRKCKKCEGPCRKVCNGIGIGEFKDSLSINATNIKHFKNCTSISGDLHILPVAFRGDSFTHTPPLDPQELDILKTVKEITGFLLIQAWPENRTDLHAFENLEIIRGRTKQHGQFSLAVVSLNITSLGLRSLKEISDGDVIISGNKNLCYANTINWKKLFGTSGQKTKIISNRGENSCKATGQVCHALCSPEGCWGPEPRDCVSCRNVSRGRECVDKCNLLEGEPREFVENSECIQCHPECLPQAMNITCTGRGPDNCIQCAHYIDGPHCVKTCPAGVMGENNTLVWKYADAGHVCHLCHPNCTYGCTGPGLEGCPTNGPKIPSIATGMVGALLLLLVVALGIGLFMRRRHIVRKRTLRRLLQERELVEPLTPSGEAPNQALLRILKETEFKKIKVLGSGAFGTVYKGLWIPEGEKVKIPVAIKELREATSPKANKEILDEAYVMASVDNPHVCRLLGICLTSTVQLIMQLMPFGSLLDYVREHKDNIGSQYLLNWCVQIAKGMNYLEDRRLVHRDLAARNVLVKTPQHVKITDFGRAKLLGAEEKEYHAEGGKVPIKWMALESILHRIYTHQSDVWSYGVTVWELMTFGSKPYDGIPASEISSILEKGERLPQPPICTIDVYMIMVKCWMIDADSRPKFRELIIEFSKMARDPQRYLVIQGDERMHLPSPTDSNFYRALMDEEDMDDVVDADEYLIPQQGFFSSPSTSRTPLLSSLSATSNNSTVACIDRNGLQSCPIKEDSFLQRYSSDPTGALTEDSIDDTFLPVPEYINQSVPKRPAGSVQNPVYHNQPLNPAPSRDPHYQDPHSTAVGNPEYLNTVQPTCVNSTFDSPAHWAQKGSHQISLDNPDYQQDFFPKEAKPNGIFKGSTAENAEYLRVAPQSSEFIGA
T4 sequence (P00533 with tags, fused parts or gaps DEL746-750/T790M limits assumed): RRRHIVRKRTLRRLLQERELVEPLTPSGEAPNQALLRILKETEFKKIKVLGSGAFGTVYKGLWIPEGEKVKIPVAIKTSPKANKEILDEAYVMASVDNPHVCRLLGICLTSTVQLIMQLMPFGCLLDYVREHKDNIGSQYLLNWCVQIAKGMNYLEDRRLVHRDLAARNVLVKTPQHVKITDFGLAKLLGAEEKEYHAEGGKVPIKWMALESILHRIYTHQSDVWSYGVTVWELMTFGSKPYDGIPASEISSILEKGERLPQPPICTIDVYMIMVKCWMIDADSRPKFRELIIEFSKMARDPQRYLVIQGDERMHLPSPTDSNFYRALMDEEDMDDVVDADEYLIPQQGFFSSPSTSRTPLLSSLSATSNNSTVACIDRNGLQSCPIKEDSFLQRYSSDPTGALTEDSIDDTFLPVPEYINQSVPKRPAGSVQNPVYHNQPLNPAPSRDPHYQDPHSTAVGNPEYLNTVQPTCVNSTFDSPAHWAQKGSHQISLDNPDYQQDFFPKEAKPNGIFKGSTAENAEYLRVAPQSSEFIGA
T5 sequence (P00533 with tags, fused parts or gaps DEL746-750/C797S limits assumed): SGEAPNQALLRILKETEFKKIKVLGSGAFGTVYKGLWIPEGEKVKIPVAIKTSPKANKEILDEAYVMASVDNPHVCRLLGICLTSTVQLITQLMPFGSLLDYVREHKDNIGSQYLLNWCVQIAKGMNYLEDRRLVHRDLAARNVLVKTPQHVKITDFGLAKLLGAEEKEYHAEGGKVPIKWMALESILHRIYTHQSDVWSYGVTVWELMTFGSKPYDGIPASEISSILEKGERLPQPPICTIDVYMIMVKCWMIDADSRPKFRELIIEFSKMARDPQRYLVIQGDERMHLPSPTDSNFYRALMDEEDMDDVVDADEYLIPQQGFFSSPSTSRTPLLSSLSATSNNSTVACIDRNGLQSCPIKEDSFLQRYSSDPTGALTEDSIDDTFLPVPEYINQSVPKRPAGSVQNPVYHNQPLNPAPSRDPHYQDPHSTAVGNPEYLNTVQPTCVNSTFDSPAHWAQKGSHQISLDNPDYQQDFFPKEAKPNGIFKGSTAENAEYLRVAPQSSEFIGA
T7 sequence (P00533 with tags, fused parts or gaps DEL746-750/T790M/C797S limits assumed): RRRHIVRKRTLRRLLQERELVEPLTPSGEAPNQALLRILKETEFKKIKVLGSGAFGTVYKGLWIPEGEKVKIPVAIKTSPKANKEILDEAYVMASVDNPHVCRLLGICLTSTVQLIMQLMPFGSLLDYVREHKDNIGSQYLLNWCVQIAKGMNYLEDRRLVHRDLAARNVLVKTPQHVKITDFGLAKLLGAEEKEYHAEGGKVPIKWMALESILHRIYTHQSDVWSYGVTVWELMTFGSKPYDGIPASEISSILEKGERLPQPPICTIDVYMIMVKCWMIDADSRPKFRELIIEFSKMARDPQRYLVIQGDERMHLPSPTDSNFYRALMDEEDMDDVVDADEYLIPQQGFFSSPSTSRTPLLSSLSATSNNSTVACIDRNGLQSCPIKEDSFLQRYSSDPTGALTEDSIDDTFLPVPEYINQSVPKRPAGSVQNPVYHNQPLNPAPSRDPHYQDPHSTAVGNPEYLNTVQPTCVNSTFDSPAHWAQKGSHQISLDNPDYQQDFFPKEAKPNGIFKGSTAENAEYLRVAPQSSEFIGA

Row | Structure (SMILES) | IC50 [1, 12] | IC50 [3, 13] | IC50 [4, 14] | IC50 [5, 15] | IC50 [6, 16] | GI50 [11, 17] | GI50 [11, 18] | GI50 [11, 19] | IC50 [7, 20] | IC50 [8, 21] | IC50 [9, 22] | further results
1 | CN(C)CCC1CN(c2ccc3nc4n(c3c2)C23CCC(CN(CCOc5c(cnn5C)-c5cc(cn(C)c5=O)C(=O)N4)C2)C3)C1 (single isomer, unassigned) [Example A95A] | – | – | – | – | – | – | – | – | – | – | – | IC50 ([1]; EGFR T790M-C797S-L858R, 1 h, room temperature, read-out: IC50 (nM) @T790M- C797S - L858R): > 5000 nM; IC50 ([2]; 1 h, room temperature, read-out: IC50 (nM) @L858R): 4640 nM; IC50 ([3]; EGFR L858-C797S, 1 h, room temperature, read-out: IC50 (nM) @L858-C797S): > 5000 nM; IC50 ([4]; EGFR Del19-T790M, 1 h, room temperature, read-out: IC50 (nM) @Del19-T790M): > 5000 nM; IC50 ([5]; EGFR Del19-C797S, 1 h, room temperature, read-out: IC50 (nM) @Del19-C797S): 899 nM; IC50 ([6]; EGFR L858R-T790M, 1 h, room temperature, read-out: IC50 (nM) @L858R-T790M): > 5000 nM; IC50 ([7]; EGFR T790M-C797S-Del19, 1 mM ATP, 1 h, room temperature, read-out: IC50 (nM) @T790M - C797S - Del19): > 5000 nM; IC50 ([8]; EGFR Del19, 1 mM ATP, 1 h, room temperature): 864 nM; IC50 ([9]; EGFR WT, 1 h, room temperature, read-out: IC50 (nM) @WT): > 5000 nM
2 | Cc1cc2cc(n1)-c1cnn(C)c1OCCN1CCOCC(C1)n1c(nc3ccccc31)NC2=O (stereo not drawn) [Example B7, 15,21-dimethyl-23,29-dioxa-2,9,11,16,20,21,26-heptaazahexacyclo[24.4.1.1^{13,17}.0^{2,10}.0^{3,8}.0^{18,22}]dotriaconta-3,5,7,9,13(32),14,16,18(22),19-nonaen-12-one] | 1090 nM | > 5000 nM | 109 nM | 627 nM | 1960 nM | 300 nM | 723 nM | 420 nM | 44 nM | 1420 nM | > 500 nM | GI50 [10]: 667 nM; GI50 ([11]; BaF3 cells, EGFR DEL19 - T790-C797S, read-out: GI50 DEL19 - T790-C797S/BaF3): 296 nM; GI50 ([11]; Mus musculus, BaF3, 72 h, BaF3 cells, EGFR DEL19 - C797S, read-out: GI50 DEL19 - C797S/BaF3): 346 nM; GI50 ([11]; Mus musculus, BaF3, 72 h, BaF3 cells, EGFR L858R - C797S, read-out: GI50 L858R - C797S/BaF3): 334 nM; GI50 ([11]; Mus musculus, BaF3, 72 h, BaF3 cells, EGFR L858R, read-out: GI50 L858R/BaF3): 1900 nM
3 | Cc1cc2cc(n1)-c1cnn(C)c1OCCN1CC3CCC(CC3)(C1)n1c(nc3ccc(N4CCC5(CCN(C)CC5)C4)cc31)NC2=O [Example B38] | 14 nM | 300 nM | 21 nM | 26 nM | 37 nM | 19 nM | 38 nM | 10 nM | 8.2 nM | 38 nM | > 5000 nM | IC50 ([2]; 1 h at room temperature, read-out: IC50 @L858R): 560 nM; GI50 ([11]; BaF3 cells, EGFR DEL19 - C797S, read-out: GI50 DEL19 - C797S/BaF3): 24 nM; GI50 ([11]; BaF3 cells, EGFR L858R, read-out: GI50 L858R/BaF3): 81 nM
